US20160207930A1 (LEO PHARMA A/S, priority 2013, published 2016)
pIC50: −log10 of the molar value.

Columns and labels:
NK1 Receptor = molecular target: T1, NK1 Receptor (Homo sapiens, UniProt P25103); experiment: NK1 receptor mediated intracellular [Ca2+] mobilization in U251 MG cells using FLIPR; format: cell-based; details: antagonism of Substance P (EC80), Fluo-4, read-out: NK1R mediated intracellular [Ca^2+] mobilization IC 50
T1 construct: Measurement of NK1 Receptor Mediated Intracellular [Ca^2+]; Mobilization in U251 MG Cells Using FLIPR; endogenous in cells; host or cells: U251 MG cells
T1 sequence (P25103 whole entry): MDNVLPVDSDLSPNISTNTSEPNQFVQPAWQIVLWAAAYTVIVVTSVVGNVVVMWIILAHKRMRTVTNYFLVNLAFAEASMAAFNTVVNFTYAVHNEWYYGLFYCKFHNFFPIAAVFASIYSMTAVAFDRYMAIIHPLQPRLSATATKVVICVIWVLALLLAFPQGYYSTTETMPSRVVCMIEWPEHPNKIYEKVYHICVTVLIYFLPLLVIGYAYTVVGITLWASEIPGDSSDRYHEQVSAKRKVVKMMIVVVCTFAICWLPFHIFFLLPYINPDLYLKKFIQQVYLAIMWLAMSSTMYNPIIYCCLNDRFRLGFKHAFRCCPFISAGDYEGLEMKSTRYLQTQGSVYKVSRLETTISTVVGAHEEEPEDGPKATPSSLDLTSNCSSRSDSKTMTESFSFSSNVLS
Description: Measurement of NK1 Receptor Mediated Intracellular [Ca^2+] Mobilization in U251 MG Cells Using FLIPR
U251 MG cells were seeded into black walled clear-bottom 384-well plates (Greiner Bio-One GmbH, Frickenhausen, Germany) at a density of 15,000 cells/well in 50 μl culture medium and cultured overnight in a 37° C. 5% CO2 incubator. The cells were then loaded with the calcium sensitive dye Fluo-4 (Invitrogen) at 1 μM in buffer, containing 0.04% Pluronic F-127 (Sigma-Aldrich), and 2.5 mM probenecid (Sigma-Aldrich) for 60 min in a humidified atmosphere of 5% CO2. Thereafter, cells were washed three times in washing buffer containing 20 mM HEPES and 2.5 mM probenecid pH 7.3. Serial dilutions of test compounds in assay buffer containing 2% dimethyl sulfoxide (final concentration in the cell plate is 0.5% DMSO) and/or agonist were then automatically pipetted into each test well, and the peak fluorescence intensity was recorded (lex, 488 nm; lem, 540 nm) by the FLIPR instrument (Molecular Devices) for approximately 5 min. To measure antagonist potency, cell plates were first incubated with the test compound and intracellular fluorescence recorded for 5 minutes to check a potential agonist effect of the test compound. Cell plates were quickly removed from the FLIPR instrument and incubated for additional 10 minutes at 37° C. before being moved back to the FLIPR instrument for Substance P (EC80) addition. The response was measured as the peak relative fluorescence change after agonist addition.
Compound relative %-effect was normalized to the maximal response evoked by 100 nM Aprepitant in presence of the EC80 of Substance P and the antagonist potency determined by non-linear regression using GraphPad Prism (version 5) or the four-parameter logistic model in XLfit (IDBS, Guilford, UK) for Microsoft Excel (Microsoft, Redmond, Wash.). The IC50 value is defined as the molar concentration of a test compound that produces a response midway between the fitted top and the fitted bottom. pIC50=−log IC50
Formula is listed as follows:
Fit (% Effect calculated)=(A+((B−A)/(1+((C/X)̂D)))) • A: bottom value • B: top value • C: test compound concentration • X: Relative IC50 • D: Hill slope coefficient
Ref: Sullivan E, Tucker E M, and Dale I L. Measurement of [Ca^2+] using the Fluorometric Imaging Plate Reader (FLIPR). Methods Mol Biol 114:125-133, 1999.
Compounds of the present invention were tested according to example 100.

[1] = Hepatic intrinsic clearance following incubation in human liver microsomes; format: in vitro ADME; details: 0.5 μM test compound, NADPH, 0-30 min, scaled to g liver
Description: Hepatic Extraction Ratio from Hepatic Intrinsic Clearance Following Incubation in Human Liver Microsomes
The general procedure consists of an automated incubation system and LC-MS/MS analysis with human liver microsomes. Human liver microsomes are thawed rapidly in a waterbath at 37° C. and kept on ice until use. The human liver microsomes are diluted with 50 mM potassium phosphate buffer pH 7.4 to a protein concentration of 0.55 mg/mL. Test compounds and positive controls (Verapamil and Dextromethorphan, positive controls for CYP3A4 for CYP2D6 isoforms, respectively) are dissolved in methanol (or other appropriate solvent, if necessary) in order to obtain a 5 mM solution which is further diluted to the concentration of 50 μM. The stock solutions are prepared immediately before the test.
5 μL of 50 μM test compounds and controls are added to 445 μL-of the 0.55 mg/mL microsomes solution and the incubation mixture are pre-warmed at 37° C. for 5 minutes. The incubation reactions are initiated by adding 50 μL of pre-warmed NADPH regenerating system to the incubation mixtures. 50 μL-aliquots will be taken from the incubation mixtures at: 0, 3, 6, 9, 15 and 30 minutes and the reactions are stopped by adding 100 μL of ACN containing Rolipram, used as generic Internal Standard (IS). Samples are then diluted with 120 μL of Milli-Q water and centrifuged at 3000 rpm for 10 minutes, prior the LC-MS/MS analysis.
The integrated peak areas for test compounds at the selected time points are divided by the respective peak areas of the IS and the percent of parent remaining is calculated by normalizing the peak area ratio of parent to IS at 0 min. Observed rate constant (kobs) for parent degradation is calculated by determining the slope of the line of the graph of the natural log of percentage parent remaining versus time of incubation. From the rate of depletion (min−1) and volume of the incubation (mL), clearance is estimated. This is scaled for the protein in the incubation relative to that in the intact liver, for all species (mL/min/g liver).
Values for the Human in vitro Clint are expressed as mL/min/g liver.
Assuming a liver weight of 25.7 g/kg and a liver blood flow of 20.7 mL/min/kg, the hepatic extraction ratio, Eh, can be derived from the Human in vitro Clint:
E.g. a Human in vitro Clint of 2.4 mL/min/g liver corresponds to a hepatic extraction ratio of 75%.
Some compounds of the present invention were tested according to example 101.

| pIC50 (NK1 Receptor) | Human in vitro Clint [1] [mL/min/g] | SMILES |
| --- | --- | --- |
| 10.23 | 61 | CCc1cc([C@@H](C)N(C)C(=O)N2CCN3C(=O)C(CCO)(CCO)C[C@H]3[C@@H]2c2ccc(O)cc2C)cc(C(F)(F)F)c1 [Compound 31, (1S,8aS)—N—((R)-1-(3-ethyl-5-(trifluoromethyl)phenyl)ethyl)-1-(4-hydroxy-2-methylphenyl)-7,7-bis(2-hydroxyethyl)-N-methyl-6-oxohexahydropyrrolo[1,2-a]pyrazine-2(1H)-carboxamide] |
| 9.18 | >200 | CCc1cc([C@@H](C)N(C)C(=O)N2CCN3C(=O)CC[C@H]3[C@@H]2c2ccccc2C)nc(C(F)(F)F)c1 [Compound 32, (1S,8aS)—N—((R)-1-(4-ethyl-6-(trifluoromethyl)pyridin-2-yl)ethyl)-N-methyl-6-oxo-1-o-tolylhexahydropyrrolo[1,2-a]pyrazine-2(1H)-carboxamide] |
| 9.86 | >200 | Cc1cc(CN(C)C(=O)N2CCN3C(=O)C(CCO)(CCO)C[C@H]3[C@@H]2c2ccccc2C)nc(C(F)(F)F)c1 [Compound 33, (1S,8aS)-7,7-bis(2-hydroxyethyl)-N-methyl-N-((4-methyl-6-(trifluoromethyl)pyridin-2-yl)methyl)-6-oxo-1-o-tolylhexahydropyrrolo[1,2-a]pyrazine-2(1H)-carboxamide] |
| 10.27 | >200 | Cc1ccc([C@H]2[C@@H]3CC(CCO)(CCO)C(=O)N3CCN2C(=O)N(C)[C@H](C)c2cc(Cl)cc(C(F)(F)F)c2)c(C)c1 [Compound 34, (1S,8aS)—N—((R)-1-(3-chloro-5-(trifluoromethyl)phenyl)ethyl)-1-(2,4-dimethylphenyl)-7,7-bis(2-hydroxyethyl)-N-methyl-6-oxo-hexahydropyrrolo[1,2-a]pyrazine-2(1H)-carboxamide] |
| 9.85 | >200 | Cc1ccc([C@H]2[C@@H]3CC(CCO)(CCO)C(=O)N3CCN2C(=O)N(C)[C@H](C)c2cc(C(C)C)cc(C(F)(F)F)c2)c(C)c1 [Compound 35, (1S,8aS)-1-(2,4-dimethylphenyl)-7,7-bis(2-hydroxyethyl)-N—((R)-1-(3-isopropyl-5-(trifluoromethyl)phenyl)ethyl)-N-methyl-6-oxohexahydropyrrolo[1,2-a]pyrazine-2(1H)-carboxamide] |
| 9.09 | 147 | COc1ccccc1[C@H]1[C@@H]2CC(CCO)(CCO)C(=O)N2CCN1C(=O)N(C)[C@H](C)c1cc(C(F)(F)F)cc(C(F)(F)F)c1 [Compound 36, (1S,8aS)—N—((R)-1-(3,5-bis(trifluoromethyl)phenyl)ethyl)-7,7-bis(2-hydroxyethyl)-1-(2-methoxyphenyl)-N-methyl-6-oxo-hexahydropyrrolo[1,2-a]pyrazine-2(1H)-carboxamide] |
| 10.10 | 30 | Cc1ccc(C)c([C@H]2[C@@H]3CC(CCO)(CCO)C(=O)N3CCN2C(=O)N(C)[C@H](C)c2cc(C(F)(F)F)cc(C(F)(F)F)c2)c1 [Compound 37, (1S,8aS)—N—((R)-1-(3,5-bis(trifluoromethyl)phenyl)ethyl)-1-(2,5-dimethylphenyl)-7,7-bis(2-hydroxyethyl)-N-methyl-6-oxo-hexahydropyrrolo[1,2-a]pyrazine-2(1H)-carboxamide] |
| 9.93 | 157 | Cc1ccc(C)c([C@H]2[C@@H]3CC(CCO)(CCO)C(=O)N3CCN2C(=O)N(C)[C@H](C)c2cc(C(C)C)cc(C(F)(F)F)c2)c1 [Compound 38, (1S,8aS)-1-(2,5-dimethylphenyl)-7,7-bis(2-hydroxyethyl)-N—((R)-1-(3-isopropyl-5-(trifluoromethyl)phenyl)ethyl)-N-methyl-6-oxohexahydropyrrolo[1,2-a]pyrazine-2(1H)-carboxamide] |
| 9.92 | >200 | Cc1cccc([C@H]2[C@@H]3CC(CCO)(CCO)C(=O)N3CCN2C(=O)N(C)[C@H](C)c2cc(C(F)(F)F)cc(C(F)(F)F)c2)c1C [Compound 39, (1S,8aS)—N—((R)-1-(3,5-bis(trifluoromethyl)phenyl)ethyl)-1-(2,3-dimethylphenyl)-7,7-bis(2-hydroxyethyl)-N-methyl-6-oxohexahydropyrrolo[1,2-a]pyrazine-2(1H)-carboxamide] |
| 9.71 | >200 | Cc1cccc([C@H]2[C@@H]3CCC(=O)N3CCN2C(=O)N(C)[C@H](C)c2cc(C(F)(F)F)cc(C(F)(F)F)c2)c1C [Compound 40, (1S,8aS)—N—((R)-1-(3,5-bis(trifluoromethyl)phenyl)ethyl)-1-(2,3-dimethylphenyl)-N-methyl-6-oxo-hexahydropyrrolo[1,2-a]pyrazine-2(1H)-carboxamide] |
| 9.95 | >200 | CCc1cc([C@@H](C)N(C)C(=O)N2CCN3C(=O)CC[C@H]3[C@@H]2c2cccc(C)c2C)cc(C(F)(F)F)c1 [Compound 41, (1S,8aS)-1-(2,3-dimethylphenyl)-N—((R)-1-(3-ethyl-5-(trifluoromethyl)phenyl)ethyl)-N-methyl-6-oxo-hexahydropyrrolo[1,2-a]pyrazine-2(1H)-carboxamide] |
| 9.51 | >200 | Cc1cccc([C@H]2[C@@H]3CCC(=O)N3CCN2C(=O)N(C)[C@H](C)c2cc(C(C)C)cc(C(F)(F)F)c2)c1C [Compound 42] |
| 7.00 | >200 | Cc1cccnc1[C@@H]1[C@@H]2CCC(=O)N2CCN1C(=O)N(C)[C@H](C)c1cc(C(F)(F)F)cc(C(F)(F)F)c1 [Compound 44, (1S,8aS)—N—((R)-1-(3,5-bis(trifluoromethyl)phenyl)ethyl)-N-methyl-1-(3-methylpyridin-2-yl)-6-oxo-hexahydropyrrolo[1,2-a]pyrazine-2(1H)-carboxamide] |
| 9.11 | <10 | Cc1ccncc1[C@H]1[C@@H]2CCC(=O)N2CCN1C(=O)N(C)[C@H](C)c1cc(C(F)(F)F)cc(C(F)(F)F)c1 [Compound 45, (1S,8aS)—N—((R)-1-(3,5-bis(trifluoromethyl)phenyl)ethyl)-N-methyl-1-(4-methylpyridin-3-yl)-6-oxo-hexahydropyrrolo[1,2-a]pyrazine-2(1H)-carboxamide] |
| 9.78 | <10 | Cc1cnccc1[C@H]1[C@@H]2CCC(=O)N2CCN1C(=O)N(C)[C@H](C)c1cc(C(F)(F)F)cc(C(F)(F)F)c1 [Compound 46, (1S,8aS)—N—((R)-1-(3,5-bis(trifluoromethyl)phenyl)ethyl)-N-methyl-1-(3-methylpyridin-4-yl)-6-oxohexahydropyrrolo[1,2-a]pyrazine-2(1H)-carboxamide] |
| 9.60 | >200 | Cc1cscc1[C@H]1[C@@H]2CCC(=O)N2CCN1C(=O)N(C)[C@H](C)c1cc(C(F)(F)F)cc(C(F)(F)F)c1 [Compound 48] |
